Source: ChEMBL document CHEMBL5316268 (J Med Chem, 2023)
≈ marks a conversion by molar mass, not a printed value. Calls of active or inactive are those of the source. The calls are words filed in the database; no cut-off is given here.

What was measured:
[1] = Plasma protein binding in dog at 10 uM assessed as bound fraction; assay type: ADME, cell-free, Canis lupus familiaris; conditions: read-out: PPB (converted)
CD8-positive T cell [2] = experiment: Reversal of AMP-mediated suppression of human CD8-positive T cells function assessed as increase in granzyme B level at 0.01 to 1000 nM measured after 4 days by ELISA; assay type: functional, cell-based; conditions: dose 0.01-1000 nM, time 4.0 day
5'-nucleotidase [3] = target: T1, 5'-nucleotidase (Homo sapiens, UniProt P21589); experiment: Inhibition of CD73 in human plasma incubated for 15 mins in presence of 15N5-AMP by LC/MS analysis; assay type: cell-free
T1 sequence (P21589 whole entry): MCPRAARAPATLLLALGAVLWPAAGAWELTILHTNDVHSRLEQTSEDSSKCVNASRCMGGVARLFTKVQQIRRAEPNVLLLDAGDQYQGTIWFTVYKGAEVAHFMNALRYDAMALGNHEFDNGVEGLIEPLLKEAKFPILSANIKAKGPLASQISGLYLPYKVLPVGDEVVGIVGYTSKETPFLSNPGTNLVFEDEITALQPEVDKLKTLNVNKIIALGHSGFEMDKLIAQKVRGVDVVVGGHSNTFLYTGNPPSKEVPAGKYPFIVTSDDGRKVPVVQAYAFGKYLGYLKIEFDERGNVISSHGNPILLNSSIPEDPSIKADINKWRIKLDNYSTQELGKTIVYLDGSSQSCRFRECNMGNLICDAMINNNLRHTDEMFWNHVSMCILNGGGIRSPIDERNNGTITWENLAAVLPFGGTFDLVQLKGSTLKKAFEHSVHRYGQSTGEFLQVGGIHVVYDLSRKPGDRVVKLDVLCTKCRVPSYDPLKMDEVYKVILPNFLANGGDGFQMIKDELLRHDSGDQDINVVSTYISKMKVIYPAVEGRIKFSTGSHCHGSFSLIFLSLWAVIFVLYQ

Cytochrome P450 2C9 = Cytochrome P450 2C9 (Homo sapiens, UniProt P11712); experiment: Inhibition of human CYP2C9 at 10 uM; assay type: ADME
Sequence of Cytochrome P450 2C9 (P11712 whole entry): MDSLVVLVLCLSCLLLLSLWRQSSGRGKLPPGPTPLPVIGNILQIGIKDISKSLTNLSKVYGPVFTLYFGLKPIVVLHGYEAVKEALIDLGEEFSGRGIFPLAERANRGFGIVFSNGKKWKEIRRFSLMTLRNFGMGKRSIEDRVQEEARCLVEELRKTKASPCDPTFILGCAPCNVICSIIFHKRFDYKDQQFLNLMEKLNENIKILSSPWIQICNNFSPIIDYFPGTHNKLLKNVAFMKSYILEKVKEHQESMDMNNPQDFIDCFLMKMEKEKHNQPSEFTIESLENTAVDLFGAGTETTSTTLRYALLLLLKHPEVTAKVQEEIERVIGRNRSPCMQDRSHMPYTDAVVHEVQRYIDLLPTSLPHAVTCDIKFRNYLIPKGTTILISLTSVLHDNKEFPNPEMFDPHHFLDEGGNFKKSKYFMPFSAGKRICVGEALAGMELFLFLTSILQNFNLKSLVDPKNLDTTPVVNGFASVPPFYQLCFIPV

[4] = In vivo inhibition of plasma CD73 in mouse xenografted with mouse EG7 cells at 50 mg/kg, po bid administered for 20 days and measured after 2 hrs post last dose in presence of 15N5-AMP and TNAP inhibitor by LC/MS analysis relative to control; assay type: functional; conditions: EG7, 480 h, time 20 day
EG7 [5] = experiment: Antitumor activity against mouse EG7 cells implanted in C57BL/6 mouse assessed as activation of tumor-directed immune response by measuring increase in tumor-infiltrating CD8 positive cells at 50 mg/kg, po bid measured after 14 days by flow cytometry; assay type: functional, organism-based; conditions: time 14.0 day
5'-nucleotidase [6] = target: T2, 5'-nucleotidase (Mus musculus, UniProt Q61503); experiment: Inhibition of CD73 in mouse plasma incubated for 5 mins in presence of 15N5-AMP by LC/MS analysis; assay type: cell-free
T2 sequence (Q61503 whole entry): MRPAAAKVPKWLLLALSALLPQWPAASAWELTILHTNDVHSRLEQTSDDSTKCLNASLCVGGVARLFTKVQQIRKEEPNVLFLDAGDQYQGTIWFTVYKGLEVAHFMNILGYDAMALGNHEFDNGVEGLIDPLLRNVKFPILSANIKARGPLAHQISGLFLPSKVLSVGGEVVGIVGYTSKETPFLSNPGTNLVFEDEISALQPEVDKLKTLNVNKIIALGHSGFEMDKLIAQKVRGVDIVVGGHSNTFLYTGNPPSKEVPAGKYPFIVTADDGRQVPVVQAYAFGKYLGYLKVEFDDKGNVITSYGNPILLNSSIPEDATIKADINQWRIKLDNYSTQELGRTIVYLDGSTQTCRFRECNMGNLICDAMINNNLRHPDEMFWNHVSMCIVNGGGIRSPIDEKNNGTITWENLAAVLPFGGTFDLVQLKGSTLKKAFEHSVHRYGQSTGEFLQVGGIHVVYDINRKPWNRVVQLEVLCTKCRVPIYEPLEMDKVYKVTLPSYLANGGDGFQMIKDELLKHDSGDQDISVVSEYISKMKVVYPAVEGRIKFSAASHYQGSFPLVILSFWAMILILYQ

[7] = Drug concentration in mouse plasma at 50 mg/kg, po administered as single dose measured after 24 hrs by LC/MS analysis; assay type: ADME, organism-based
[8] = Drug concentration in tumor of mouse implanted with mouse EG7 cells at 10 to 50 mg/kg, po bid administered for 20 days and measured after 16 hrs post-last dose by LC/MS analysis; assay type: ADME, organism-based, Neoplasm; conditions: dose 10-50 mg/kg, time 20 day, read-out: Ct
[9] = Plasma protein binding in human assessed as unbound fraction; assay type: ADME, cell-free
[10] = Plasma protein binding in rat at 10 uM assessed as bound fraction; assay type: ADME, cell-free; conditions: read-out: PPB (converted)
5'-nucleotidase [11] = target: T1, 5'-nucleotidase; experiment: Inhibition of CD73 in human plasma derived from TNBC cancer patient incubated for 15 mins in presence of 15N5-AMP by LC/MS analysis; assay type: cell-free
[12] = Tmax in CD rat at 500 mg/kg, po measured for 24 hrs by LC-MS/MS analysis; assay type: ADME, organism-based; conditions: in vivo
[13] = Plasma protein binding in human at 10 uM assessed as bound fraction; assay type: ADME, cell-free; conditions: read-out: PPB (converted)
5'-nucleotidase [14] = target: T2, 5'-nucleotidase; experiment: Inhibition of C-terminal 6His-tagged recombinant mouse CD73 (29 to 549 residues) expressed in CHO cells incubated for 1 hr by malachite green assay; assay type: cell-based
[15] = Selectivity ratio of IC50 for CD73 in human plasma to IC50 for C-terminal 6His-tagged recombinant human CD73 (27 to 547 residues) expressed in CHO cells; assay type: cell-based
EG7 [16] = experiment: Antitumor activity against mouse EG7 cells implanted in C57BL/6 mouse assessed as reduction in tumor volume at 50 mg/kg, po bid administered for 19 days in presence of doxorubicin; assay type: functional, organism-based; conditions: time 19.0 day
[17] = Cmax in CD rat at 500 mg/kg, po measured for 24 hrs by LC-MS/MS analysis; assay type: ADME, organism-based; design: dose 500 mg/kg, time 24 hrs, route po; conditions: in vivo
[18] = Plasma protein binding in mouse at 10 uM assessed as bound fraction; assay type: ADME, cell-free; conditions: read-out: PPB (converted)
5'-nucleotidase [19] = target: T1, 5'-nucleotidase; experiment: Inhibition of CD73 in human plasma derived from ovarian cancer patient incubated for 15 mins in presence of 15N5-AMP by LC/MS analysis; assay type: cell-free
EG7 [20] = experiment: Antitumor activity against mouse EG7 cells implanted in C57BL/6 mouse assessed as reduction in tumor volume at 100 mg/kg, po bid administered for 23 days in presence of oxaliplatin; assay type: functional, organism-based; conditions: time 23.0 day
5'-nucleotidase [21] = target: T1, 5'-nucleotidase; experiment: Competitive inhibition of soluble C-terminal 6His-tagged recombinant human CD73 (27 to 547 residues) expressed in CHO cells assessed as inhibition constant incubated for 1 hr by malachite green based spectrophotometer assay; assay type: cell-based
Cytochrome P450 2D6 = Cytochrome P450 2D6 (Homo sapiens, UniProt P10635); experiment: Inhibition of human CYP2D6 at 10 uM; assay type: ADME
Sequence of Cytochrome P450 2D6 (P10635 whole entry): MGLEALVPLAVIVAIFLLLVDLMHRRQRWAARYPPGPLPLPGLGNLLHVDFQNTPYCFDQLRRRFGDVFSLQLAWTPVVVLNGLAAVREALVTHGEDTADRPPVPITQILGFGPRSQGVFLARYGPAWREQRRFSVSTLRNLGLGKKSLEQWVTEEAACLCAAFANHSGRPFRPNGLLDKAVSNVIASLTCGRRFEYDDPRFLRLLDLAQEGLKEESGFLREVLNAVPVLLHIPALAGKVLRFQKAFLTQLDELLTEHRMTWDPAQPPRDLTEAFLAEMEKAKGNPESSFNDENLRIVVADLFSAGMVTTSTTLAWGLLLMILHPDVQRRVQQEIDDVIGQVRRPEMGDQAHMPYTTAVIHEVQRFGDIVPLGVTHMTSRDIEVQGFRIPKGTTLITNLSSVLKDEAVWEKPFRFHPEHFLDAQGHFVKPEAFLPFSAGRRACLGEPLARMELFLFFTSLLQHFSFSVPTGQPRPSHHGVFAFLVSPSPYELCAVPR

[22] = Tmax in CD rat at 200 mg/kg, po measured for 24 hrs by LC-MS/MS analysis; assay type: ADME, organism-based; conditions: in vivo
EG7 [23] = experiment: Antitumor activity against mouse EG7 cells implanted in C57BL/6 mouse assessed as reduction in tumor volume at 10 to 50 mg/kg, po bid administered for 20 days; assay type: functional, organism-based; conditions: dose 10-50 mg/kg, time 20.0 day
CD8-positive T cell [24] = experiment: Reversal of AMP-mediated suppression of human CD8-positive T cells function assessed as increase in CD25 expression at 0.01 to 1000 nM measured after 4 days by flow cytometry; assay type: functional, cell-based; conditions: dose 0.01-1000 nM, time 4.0 day
Cytochrome P450 3A4 = Cytochrome P450 3A4 (Homo sapiens, UniProt P08684); experiment: Inhibition of human CYP3A4 at 10 uM; assay type: ADME
Sequence of Cytochrome P450 3A4 (P08684 whole entry): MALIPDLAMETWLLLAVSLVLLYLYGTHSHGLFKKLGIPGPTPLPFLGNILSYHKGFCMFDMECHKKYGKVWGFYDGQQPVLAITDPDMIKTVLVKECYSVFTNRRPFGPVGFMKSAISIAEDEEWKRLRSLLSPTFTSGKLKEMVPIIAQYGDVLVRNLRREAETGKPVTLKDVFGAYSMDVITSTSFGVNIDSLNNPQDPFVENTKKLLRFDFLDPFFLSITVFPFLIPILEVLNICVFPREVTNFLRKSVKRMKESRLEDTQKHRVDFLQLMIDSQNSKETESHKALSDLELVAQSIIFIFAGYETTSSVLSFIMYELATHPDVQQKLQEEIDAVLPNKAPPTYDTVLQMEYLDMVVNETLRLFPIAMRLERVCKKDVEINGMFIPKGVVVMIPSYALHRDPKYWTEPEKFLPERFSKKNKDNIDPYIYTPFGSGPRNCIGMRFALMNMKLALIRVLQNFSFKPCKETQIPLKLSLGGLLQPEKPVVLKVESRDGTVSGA

[25] = Aqueous solubility of compound at pH 1 to 7; assay type: physicochemical; conditions: aqueous solution

Compound: C#C[C@@]1(O)[C@@H](COC(Cc2ccc(N3CCCNC3=O)cc2)(C(=O)O)C(=O)O)O[C@@H](n2cnc3c(N)nc(Cl)nc32)[C@@H]1O
- fraction unbound at 10 µM [1]: 0.58
- Activity (CD8-positive T cell [2]): Active
- IC90 (5'-nucleotidase [3]): 3 nM
- inhibition (INH) (Cytochrome P450 2C9): Not Active
- inhibition in vivo at 50 mg/kg [4]: 92%
- Activity (EG7 [5]): Active
- IC50 (5'-nucleotidase [6]): 1.2 nM
- concentration at 24 h [7]: > 0.001 µM
- concentration at 480 h [8]: > 0.003 µM
- fraction unbound [9]: 0.42
- fraction unbound at 10 µM [10]: 0.29
- IC50 (5'-nucleotidase [11]): 0.18 nM
- Tmax [12]: 18 min
- fraction unbound at 10 µM [13]: 0.42
- IC50 (5'-nucleotidase [14]): 1.3 nM
- Ratio IC50 [15]: 2.2
- Activity (EG7 [16]): Active
- Cmax [17]: 11 µM
- fraction unbound at 10 µM [18]: 0.37
- IC50 (5'-nucleotidase [19]): 0.15 nM
- Activity (EG7 [20]): Active
- Ki (5'-nucleotidase [21]): 0.038 nM
- inhibition (INH) (Cytochrome P450 2D6): Not Active
- Tmax [22]: 48 min
- Activity (EG7 [23]): Active
- Activity (CD8-positive T cell [24]): Active
- inhibition (INH) (Cytochrome P450 3A4): Not Active
- solubility [25]: 3.88 mg/mL (≈ 6.3 mM)
